Values quoted from earlier work in patent publication US10332616B2, “Movable type method applied to protein-ligand binding” (University of Florida Research Foundation, Inc., priority 2013, dated 2019).
Where two headings read alike, the source gives them in different places.

Assays:
T4 Lysozyme mutant = conditions: PDB ID 1LI2
[1] = experimental solvation free energy, neutral compounds test set
[2] = experimental solvation free energy, test set with 372 neutral compounds
[3] = aqueous solvation free energy, charged compounds (ions)

| Exp. ΔGsolv [1] [kcal/mol] | SMILES | Exp. ΔGsolv [2] [kcal/mol] | further results |
| --- | --- | --- | --- |
|  | Oc1ccccc1 [phenol] |  | binding affinity (pKd) (T4 Lysozyme mutant): 4.04 |
| -10.21 | COc1ccc2cc([C@H](C)C(=O)O)ccc2c1 [test2021] |  |  |
|  | N#Cc1ccccc1 [Compound 0129ben] | -4.1 |  |
|  | FC(F)(F)C(F)(F)C(F)(F)F [Compound 0406oct] | 4.28 |  |
| -1.42 | c1ccsc1 [Compound 0245thi] |  |  |
|  | Cc1ccncc1 [Compound 0121met] | -4.94 |  |
|  | CCCCCCCC [Compound 0008noc] | 2.89 |  |
|  | CC(C)CBr [Compound 0418bri] | -0.03 |  |
|  | CCC(C)=O [Compound 0076but] | -3.64 |  |
|  | Cc1ccc(C)cc1 [Compound 0040pxy] | -0.81 |  |
|  | ClC(Cl)(Cl)C(Cl)(Cl)Cl [Compound 0408hex] | -1.4 |  |
| -1.76 | CC(C)O [Compound 0048pro] |  |  |
| -3.03 | CCCCC=O [Compound 0073pen] |  |  |
|  | CCCCCCl [Compound 0410clp] | 0.07 |  |
|  | CCCN(CC1CC1)c1c([N+](=O)[O-])cc(C(F)(F)F)cc1[N+](=O)[O-] [test1046] | -2.5 |  |
|  | Cc1cccc(C)c1 [Compound 0039mxy] | -0.84 |  |
|  | CCNc1nc(NC(C)C)nc(SC)n1 [test1009] | -7.7 |  |
|  | FC(F)(F)C(F)(F)Cl [Compound 0424clp] | 2.86 |  |
|  | O=C1CCCC1 [Compound 0077cyc] | -4.68 |  |
|  | CCCBr [Compound 0182bro] | -0.56 |  |
|  | Cc1ccccc1 [Compound 0036tol] | -0.89 |  |
|  | CCc1cnccn1 [Compound 0230eth] | -5.51 |  |
|  | CCCCl [Compound 0167chla] | -0.27 |  |
|  | Clc1ccccc1 [Compound 0174chl] | -1.12 |  |
|  | CCCC(C)=O [Compound 0078pen] | -3.53 |  |
|  | CCc1ccccc1 [Compound 0037eth] | -0.8 |  |

| Exp. ΔGsolv [1] [kcal/mol] | SMILES | Exp. ΔGsolv [2] [kcal/mol] | further results |
| --- | --- | --- | --- |
|  | CCCC#N [Compound 0128butb] | -3.64 |  |
| -9.3 | OCCO [Compound 0046eth] |  |  |
|  | O=C(O)c1ccccc1 [i064, benzoicacid, reference compound] |  | Exp. ΔGsolv [3]: -71.20 kcal/mol |
|  | C=C(C)C [Compound 0024met] | 1.16 |  |
| -10 | CNC(C)=O [Compound 0234ENmb] |  |  |
| -6.3 | O=C(O)Cc1ccccc1Nc1c(Cl)cccc1Cl [test3020] |  |  |
|  | c1ccc2ccccc2c1 [Compound 0041nap] | -2.39 |  |
|  | CCC(C)O[N+](=O)[O-] (stereo not drawn) [test1004] | -1.8 |  |
|  | Cc1ccccc1C [Compound 0038oxy] | -0.9 |  |
| -8.42 | CC(C(=O)O)c1ccc(-c2ccccc2)c(F)c1 (stereo not drawn) [test2013] |  |  |
|  | ClCC(Cl)Cl [Compound 0166tri] | -1.95 |  |
|  | Cc1ccnc(C)c1 [Compound 0123dim] | -4.86 |  |
|  | CC(=O)O [i059, aceticacid, reference compound] |  | Exp. ΔGsolv [3]: -77.60 kcal/mol |
| -2.01 | COC(C)C [Compound 0065met] |  |  |
|  | C[N+](=O)[O-] [Compound 0506nit] | -3.95 |  |
|  | CCOP(=S)(OCC)SCSc1ccc(Cl)cc1 [test1017] | -6.5 |  |
|  | CCCCCBr [Compound 0185bro] | -0.08 |  |
| -3.47 | C1CCOC1 [Compound 0061tet] |  |  |
| -6.34 | CC(=O)OCCOC(C)=O [test0013] |  |  |
|  | CCC(C)Cl (stereo not drawn) [Compound 0409clb] | 0.07 |  |
| -9.2 | CCOC(=O)c1ccc(O)cc1 [test2011] |  |  |
|  | COc1ccc(N)cc1 [i093, 4-methoxyaniline, reference compound] |  | Exp. ΔGsolv [3]: -71.20 kcal/mol |
| -5.56 | C1CNC1 [Compound 0105aze] |  |  |
|  | c1ccccc1 [Compound 0035ben] | -0.87 |  |
| -9.51 | O=Cc1cccc(O)c1 [Compound 0150mhy] |  |  |
| -1.66 | CCCOC [Compound 0064met] |  |  |

| Exp. ΔGsolv [1] [kcal/mol] | SMILES | Exp. ΔGsolv [2] [kcal/mol] | further results |
| --- | --- | --- | --- |
|  | FC(Cl)(Cl)Cl [Compound 0422ftc] | 0.82 |  |
|  | CCCN [i004, n-propylamine, reference compound] |  | Exp. ΔGsolv [3]: -71.50 kcal/mol |
| -5.05 | C1COCCO1 [Compound 0062dio] |  |  |
|  | CC(=O)c1ccccc1 [Compound 0084met] | -4.58 |  |
|  | BrCBr [Compound 0178dib] | -2.11 |  |
|  | ClC1=C(Cl)C2(Cl)C3C(Cl)C=CC3C1(Cl)C2(Cl)Cl (stereo not drawn) [test1033] | -2.6 |  |
| -9.37 | CCCOC(=O)c1ccc(O)cc1 [test2026] |  |  |
|  | C=CC=C [Compound 0023str] | 0.61 |  |
| -5.68 | O=C(O)c1ccccc1Nc1cccc(C(F)(F)F)c1 [test3021] |  |  |
|  | CCOOCC [ethylperoxide, reference compound] |  | ΔGsol experimental value (neutral molecule): -5.32 kcal/mol |
|  | C=C [Compound 0021eth] | 1.27 |  |
|  | CC1=CC(=O)CC(C)(C)C1 [test1034] | -5.2 |  |
|  | CCC(=O)O [i060, propanoicacid, reference compound] |  | Exp. ΔGsolv [3]: -76.20 kcal/mol |
| -8.84 | CC(=O)OCC(COC(C)=O)OC(C)=O [test0001] |  |  |
|  | C=CC(=O)O [i062, acrylicacid, reference compound] |  | Exp. ΔGsolv [3]: -74.00 kcal/mol |
| -1.54 | CSC [Compound 0140dim] |  |  |
| -1.43 | CCSCC [Compound 0142die] |  |  |
|  | CCCCC(C)=O [Compound 0080hex] | -3.29 |  |
|  | FC(F)(F)Br [Compound 0197bro] | 1.79 |  |
|  | CCCC(=O)CCC [Compound 0083hep] | -2.93 |  |
| -7.4 | Nc1ccc(Nc2ccccc2)c2c1C(=O)c1ccccc1C2=O [test1059] |  |  |
| -0.8 | COC(OC)(OC)C(F)(F)F [test2029] |  |  |
|  | COP(=S)(OC)Oc1cc(Cl)c(Br)cc1Cl [Compound 0445pho] | -5.7 |  |
| -12.75 | O=C(O)CCC(=O)c1ccc(-c2ccccc2)cc1 [test3003] |  |  |
|  | FC(F)(Cl)C(F)(Cl)Cl [Compound 0206tri] | 1.77 |  |

| SMILES | Exp. ΔGsolv [1] [kcal/mol] | Exp. ΔGsolv [2] [kcal/mol] | further results |
| --- | --- | --- | --- |
| O=c1cc(Cl)[nH]c(=O)[nH]1 [test2006] | -15.83 |  |  |
| Clc1c(Cl)c(Cl)c(Cl)c(Cl)c1Cl [test2015] | -2.33 |  |  |
| CCc1cccc(CC)c1N(COC)C(=O)CCl [test1007] | -8.2 |  |  |
| CCOC(C)OCC [test0009] | -3.28 |  |  |
| COC(=O)c1ccccc1CS(=O)(=O)NC(=O)Nc1nc(OC)cc(OC)n1 [test1012] | -17.2 |  |  |
| CNC(=O)ON=C(C)SC [test1037] | -10.7 |  |  |
| CC(=O)Nc1ccc(O)cc1 [test3001] | -14.83 |  |  |
| CCC(=O)Nc1ccc(Cl)c(Cl)c1 [test1048] | -7.8 |  |  |
| Nc1ccc(N)c2c1C(=O)c1c(N)ccc(N)c1C2=O [test1060] | -8.9 |  |  |
| Cc1ccc(C(=O)N(C)C)cc1 [test0006] | -9.76 |  |  |
| CCOCCOCC [test0014] | -3.54 |  |  |
| CC(=O)Oc1ccccc1C(=O)O [test2001] | -9.94 |  |  |
| CNC(=O)Oc1cccc2c1OC(C)(C)C2 [test1016] | -9.6 |  |  |
| CS [Compound 0136met] | -1.24 |  |  |
| CNC(=O)O/N=C/C(C)(C)SC [test1008] | -9.8 |  |  |
| COc1ccccc1C(=O)O [test3007] | -10.32 |  |  |
| Nc1ccccc1 [Compound 0118ani] | -5.49 |  |  |
| ClC1=C(Cl)C2(Cl)C3C4CC(C5OC45)C3C1(Cl)C2(Cl)Cl (stereo not drawn) [test1030] | -5.5 |  |  |
| CCCSC(=O)N(CCC)CCC [test1057] | -4.1 |  |  |
| CCCCCCCC(=O)OC [Compound 0238met] | -2.04 |  |  |
| Nc1cccc2c1C(=O)c1ccccc1C2=O [test1061] | -8 |  |  |
| Sc1ccccc1 [Compound 0139thi] | -2.55 |  |  |
